Reference: PubChem BioAssay (NCI)
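96-well plates; 48 h exposure; 5 concentrations. Endpoints by linear interpolation between flanking doses. Not reached: highest tested concentration assigned. GI50 = concentration required for 50% inhibition of growth. TGI is the concentration that stops growth completely.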

Tests used:
Assay in all cases: DTP human tumour cell line panel, 48 h
SK-MEL-2 melanoma = tested on: SK-MEL-2 melanoma
MCF7 breast = tested on: MCF7 breast
HS 578T breast = tested on: HS 578T breast
CCRF-CEM leukemia = tested on: CCRF-CEM leukemia
PC-3 prostate = tested on: PC-3 prostate
K-562 leukemia = tested on: K-562 leukemia
786-0 renal = tested on: 786-0 renal
UO-31 renal = tested on: UO-31 renal
SK-OV-3 ovarian = tested on: SK-OV-3 ovarian
NCI-H226 lung = tested on: NCI-H226 lung

| Structure (SMILES) | TGI (SK-MEL-2 melanoma) | TGI (MCF7 breast) | TGI (HS 578T breast) | TGI (CCRF-CEM leukemia) | TGI (PC-3 prostate) | TGI (K-562 leukemia) | TGI (786-0 renal) | TGI (UO-31 renal) | TGI (SK-OV-3 ovarian) | TGI (NCI-H226 lung) | GI50 (SK-MEL-2 melanoma) | GI50 (MCF7 breast) | GI50 (HS 578T breast) | GI50 (CCRF-CEM leukemia) | GI50 (PC-3 prostate) | GI50 (K-562 leukemia) | GI50 (UO-31 renal) | GI50 (SK-OV-3 ovarian) | GI50 (NCI-H226 lung) |
| --- | --- | --- | --- | --- | --- | --- | --- | --- | --- | --- | --- | --- | --- | --- | --- | --- | --- | --- | --- |
| Brc1ccc2c(-c3csc(-c4c[nH]c5ccc(Br)cc45)n3)c[nH]c2c1 | 18.8 µM | > 100 µM | > 51.3 µM | > 29.2 µM | 19.8 µM | > 22.2 µM | 4.71 µM | 14.4 µM | 24.2 µM | 32.1 µM | – | – | – | – | – | – | – | – | – |
| CC1CC(=O)Nc2nc3ccccc3n21 (centres undefined) | > 100 µM | > 100 µM | > 100 µM | > 100 µM | > 100 µM | > 100 µM | > 100 µM | > 100 µM | > 100 µM | > 100 µM | – | – | – | – | – | – | – | – | – |
| CC(=O)OCC(OC(C)=O)C1C[C@H]2O[C@@H]3[C@H](C[C@H]2O1)O[C@@]1(C[C@@H]3C)C[C@H](C)[C@@H]2O[C@]3(C[C@@H]2O1)C[C@H]1O[C@H]2[C@H](C)[C@H]4OC(=O)CC5CC[C@H]6OC7[C@H]8O[C@]9(CC[C@H]%10CC(O)(CO)[C@H](CC[C@H]%11C[C@@H](C)C(O)(CO)C(C[C@@H]4O[C@H]2C[C@H]1O3)O%11)O%10)CC8O[C@@H]7[C@@H](O9)[C@H]6O5 (some centres undefined) | > 1 µM | > 1 µM | 0.00517 µM | > 1 µM | > 1 µM | > 1 µM | > 1 µM | > 1 µM | > 1 µM | 0.142 µM | – | – | – | – | – | – | – | – | – |
| O=c1c2ccccc2nc(Nc2cccc(Cl)c2)n1/N=C/C=C/c1ccccc1 | > 100 µM | 74.7 µM | > 100 µM | > 100 µM | 97.4 µM | > 100 µM | > 100 µM | > 100 µM | > 100 µM | > 100 µM | – | – | – | – | – | – | – | – | – |
| O=C(N/N=C/c1ccco1)c1cc(I)cc(I)c1O | 19.7 µM | > 50 µM | > 50 µM | > 50 µM | > 50 µM | > 50 µM | 37.4 µM | > 50 µM | – | 39.7 µM | – | – | – | – | – | – | – | – | – |
| N#Cc1c(-c2ccc(F)cc2)nc(N/N=C/c2c[nH]c3ccccc23)nc1N1CCOCC1 | 17.7 µM | 57.4 µM | 32.5 µM | > 100 µM | > 100 µM | 14.2 µM | – | 55.2 µM | 38.9 µM | 88 µM | 3.5 µM | 4.56 µM | 3.62 µM | 3.43 µM | 3.54 µM | 1.79 µM | 1.76 µM | 8.61 µM | 24.2 µM |
| Cc1nc(C)c(Cc2ccccc2)o1 | – | > 100 µM | > 100 µM | > 100 µM | > 100 µM | > 100 µM | > 100 µM | > 100 µM | > 100 µM | > 100 µM | – | – | – | – | – | – | – | – | – |
| CCOC(=O)C(CC#Cc1ccc(C#CCC(NC(C)=O)C(=O)OCC)cc1)NC(C)=O (centres undefined) | > 100 µM | > 100 µM | > 100 µM | > 100 µM | > 100 µM | > 100 µM | > 100 µM | > 100 µM | > 100 µM | > 100 µM | – | – | – | – | – | – | – | – | – |
| CC(C)(C)c1cc(/C=C(\C#N)C(=O)NCCO)cc(C(C)(C)C)c1O | 37.4 µM | 93.5 µM | > 100 µM | 46.3 µM | 46.7 µM | 86.7 µM | 48.3 µM | 49.7 µM | 60.2 µM | 40.7 µM | – | – | – | – | – | – | – | – | – |
| Cc1nn(-c2cc(Cl)ccc2[N+](=O)[O-])c(C)c1Cl | > 100 µM | > 100 µM | > 100 µM | > 100 µM | > 100 µM | > 100 µM | > 100 µM | > 100 µM | > 100 µM | > 100 µM | – | – | – | – | – | – | – | – | – |
| COc1cc(I)c2c3c1OC1C34CCN(C)C(C2)C4=CC(I)C1(OC)OC (centres undefined) | 32.9 µM | 64.3 µM | > 100 µM | 26.8 µM | 82.1 µM | 61.8 µM | 43.7 µM | 34.7 µM | 68 µM | 70.5 µM | – | – | – | – | – | – | – | – | – |
| OC1(c2ccc(Cl)cc2)c2ccc3ccccc3c2C2=N[C@H]3CCCC[C@@H]3N21 (some centres undefined) | > 100 µM | > 100 µM | 3.94 µM | 79.9 µM | 51.2 µM | > 100 µM | – | > 100 µM | 65.3 µM | > 100 µM | – | – | – | – | – | – | – | – | – |
| CCOC(=O)C(NC(=O)CC(C)C)(N1CCN(c2cc3c(cc2F)c(=O)c(C(=O)O)cn3C2CC2)CC1)C(F)(F)F (centres undefined) | 53.3 µM | 68.4 µM | 57.8 µM | 14 µM | 63.7 µM | 42 µM | > 100 µM | 49.6 µM | 65.8 µM | 46.3 µM | – | – | – | – | – | – | – | – | – |
| CCC(C)C(=O)OC1CC2(C)C(c3ccoc3)OC(=O)CC23OC2(C)OC34C(OC(=O)C(C)C)C3(O)C(OC(=O)C5(C)OC5C)C5(C)CC3(O)C(C)(C5CC(=O)OC)C14O2 (centres undefined) | > 100 µM | 66.1 µM | > 100 µM | 74.1 µM | > 100 µM | > 100 µM | > 100 µM | > 100 µM | > 100 µM | > 100 µM | – | – | – | – | – | – | – | – | – |
| Nc1ccc(S(=O)(=O)Nc2nc3ccccc3nc2N2CCCCC2)cc1 | > 100 µM | > 100 µM | > 100 µM | > 100 µM | > 100 µM | > 100 µM | > 100 µM | 55.1 µM | > 100 µM | > 100 µM | – | – | – | – | – | – | – | – | – |
| O=C1CSC(c2cccs2)N1c1nc2cc3sc(N4C(=O)CSC4c4cccs4)nc3cc2s1 (centres undefined) | > 50 µM | > 50 µM | > 50 µM | > 50 µM | > 50 µM | > 50 µM | > 50 µM | > 50 µM | > 50 µM | 26.8 µM | – | – | – | – | – | – | – | – | – |
| O=c1oc2cc(O)ccc2c(O)c1C(c1ccc(C(c2c(O)c3ccc(O)cc3oc2=O)c2c(O)c3ccc(O)cc3oc2=O)cc1)c1c(O)c2ccc(O)cc2oc1=O | > 100 µM | > 100 µM | > 100 µM | > 100 µM | > 100 µM | > 100 µM | – | > 100 µM | > 100 µM | > 100 µM | – | – | – | – | – | – | – | – | – |
| Brc1cccc(N=NN2CCCC2)c1 | > 100 µM | > 100 µM | > 100 µM | > 100 µM | > 100 µM | > 100 µM | > 100 µM | > 100 µM | > 100 µM | > 100 µM | – | – | – | – | – | – | – | – | – |
| C=C1C(=O)O[C@@]23C1CC[C@@H](C)C2CC[C@@]1(C)OC31 (some centres undefined) | 23.9 µM | 24.9 µM | 46.5 µM | 15.9 µM | 18.7 µM | 66.1 µM | 26.6 µM | 18.5 µM | 47.6 µM | 47.9 µM | – | – | – | – | – | – | – | – | – |
